Data reported in the NIST ThermoML archive (doi:10.1016/j.fluid.2014.04.038).
Where “and” joins values, the source holds several entries; their conditions need not be identical. Equal entries are not always repeated. ± gives the expanded uncertainty stated by the source.

Conditions: Hot wire method

In the case of CCF [fluoroethane], the thermal conductivity (355.41 K, 2277.9 kPa, Gas) is reported as 0.02422 ± 0.0015 W/m/K, the thermal conductivity (355.59 K, 2007.1 kPa, Gas) is reported as 0.02432 ± 0.0015 W/m/K and the thermal conductivity (355.7 K, Liquid) is reported as 0.08043 ± 0.0032 W/m/K and 0.08031 ± 0.0032 W/m/K. The thermal conductivity (355.71 K, Liquid) was 0.08044 ± 0.0032 W/m/K, the thermal conductivity (355.72 K, 1531.1 kPa, Gas) was 0.02295 ± 0.0014 W/m/K and the thermal conductivity (355.79 K, 2586.5 kPa, Gas) was 0.02513 ± 0.0015 W/m/K. The thermal conductivity (355.91 K, 2277.9 kPa, Gas) was 0.02436 ± 0.0015 W/m/K, the thermal conductivity (355.95 K, 2934.5 kPa, Gas) was 0.0265 ± 0.0016 W/m/K and the thermal conductivity (355.99 K, 1034.8 kPa, Gas) was 0.02302 ± 0.0014 W/m/K. The thermal conductivity (356.06 K, 2007.1 kPa, Gas) was 0.02406 ± 0.0015 W/m/K, the thermal conductivity (356.17 K, 611.2 kPa, Gas) was 0.02275 ± 0.0014 W/m/K and the thermal conductivity (356.26 K, 2586.5 kPa, Gas) was 0.02498 ± 0.0015 W/m/K. It also gave a thermal conductivity (356.27 K, 1531.1 kPa, Gas) of 0.02331 ± 0.0014 W/m/K, a thermal conductivity (356.32 K, 266.7 kPa, Gas) of 0.02267 ± 0.0014 W/m/K and a thermal conductivity (356.52 K, 2277.9 kPa, Gas) of 0.02412 ± 0.0015 W/m/K. It also gave a thermal conductivity (356.55 K, 1034.8 kPa, Gas) of 0.0229 ± 0.0014 W/m/K, a thermal conductivity (356.73 K, 2007.1 kPa, Gas) of 0.02363 ± 0.0014 W/m/K and a thermal conductivity (356.82 K, 611.2 kPa, Gas) of 0.02305 ± 0.0014 W/m/K. For the same compound, the thermal conductivity (357.02 K, 266.7 kPa, Gas) was 0.02276 ± 0.0014 W/m/K, the thermal conductivity (357.06 K, 1531.1 kPa, Gas) was 0.02299 ± 0.0014 W/m/K and the thermal conductivity (357.39 K, 1034.8 kPa, Gas) was 0.02287 ± 0.0014 W/m/K. The thermal conductivity (357.69 K, 611.2 kPa, Gas) was 0.02264 ± 0.0014 W/m/K, the thermal conductivity (357.98 K, 266.7 kPa, Gas) was 0.02298 ± 0.0014 W/m/K and the thermal conductivity (364.69 K, Liquid) was 0.07657 ± 0.0031 W/m/K. The thermal conductivity (364.71 K, Liquid) was 0.07768 ± 0.0031 W/m/K, the thermal conductivity (364.75 K, Liquid) was 0.07676 ± 0.0031 W/m/K and the thermal conductivity (364.77 K, 3438 kPa, Gas) was 0.02941 ± 0.0018 W/m/K. The thermal conductivity (364.87 K, 3960.3 kPa, Gas) was 0.03259 ± 0.002 W/m/K, the thermal conductivity (365.05 K, 2942.4 kPa, Gas) was 0.02781 ± 0.0017 W/m/K and the thermal conductivity (365.06 K, Liquid) was 0.07678 ± 0.0031 W/m/K. For the same compound, the thermal conductivity (365.08 K, Liquid) was 0.07679 ± 0.0031 W/m/K and 0.07656 ± 0.0031 W/m/K, the thermal conductivity (365.11 K, 3438 kPa, Gas) was 0.02942 ± 0.0018 W/m/K and the thermal conductivity (365.43 K, 2942.4 kPa, Gas) was 0.02721 ± 0.0017 W/m/K. The thermal conductivity (365.47 K, Liquid) was 0.07603 ± 0.0031 W/m/K, the thermal conductivity (365.52 K, Liquid) was 0.07616 ± 0.0031 W/m/K and the thermal conductivity (365.53 K, Liquid) was 0.07615 ± 0.0031 W/m/K. It also gave a thermal conductivity (365.62 K, 2506.8 kPa, Gas) of 0.0257 ± 0.0016 W/m/K, a thermal conductivity (365.62 K, 3718.5 kPa, Gas) of 0.03133 ± 0.0019 W/m/K and a thermal conductivity (365.65 K, 3438 kPa, Gas) of 0.02965 ± 0.0018 W/m/K. It also gave a thermal conductivity (365.98 K, 2942.4 kPa, Gas) of 0.027 ± 0.0017 W/m/K, a thermal conductivity (365.99 K, 2001.8 kPa, Gas) of 0.02478 ± 0.0015 W/m/K and a thermal conductivity (366.21 K, 2506.8 kPa, Gas) of 0.02572 ± 0.0016 W/m/K. It also gave a thermal conductivity (366.21 K, 3718.5 kPa, Gas) of 0.03142 ± 0.0019 W/m/K, a thermal conductivity (366.29 K, 533.7 kPa, Gas) of 0.02342 ± 0.0014 W/m/K and a thermal conductivity (366.42 K, 1515.5 kPa, Gas) of 0.02467 ± 0.0015 W/m/K. For the same compound, the thermal conductivity (366.63 K, 1029 kPa, Gas) was 0.0243 ± 0.0015 W/m/K, the thermal conductivity (366.67 K, 2001.8 kPa, Gas) was 0.02473 ± 0.0015 W/m/K and the thermal conductivity (366.76 K, 2506.8 kPa, Gas) was 0.02558 ± 0.0016 W/m/K. The thermal conductivity (367.1 K, 1515.5 kPa, Gas) was 0.02393 ± 0.0015 W/m/K, the thermal conductivity (367.32 K, 2001.8 kPa, Gas) was 0.02511 ± 0.0015 W/m/K and the thermal conductivity (367.38 K, 533.7 kPa, Gas) was 0.0242 ± 0.0015 W/m/K. The thermal conductivity (367.49 K, 1029 kPa, Gas) was 0.02463 ± 0.0015 W/m/K, the thermal conductivity (368.3 K, 533.7 kPa, Gas) was 0.02352 ± 0.0014 W/m/K and the thermal conductivity (368.41 K, 1515.5 kPa, Gas) was 0.02402 ± 0.0015 W/m/K. It also gave a thermal conductivity (368.9 K, 1029 kPa, Gas) of 0.02415 ± 0.0015 W/m/K, a thermal conductivity (373.83 K, 4470.3 kPa, Gas) of 0.03726 ± 0.0023 W/m/K and a thermal conductivity (373.99 K, 4470.3 kPa, Gas) of 0.03714 ± 0.0023 W/m/K. For the same compound, the thermal conductivity (374.47 K, 4470.3 kPa, Gas) was 0.03687 ± 0.0023 W/m/K, the thermal conductivity (374.47 K, Liquid) was 0.07323 ± 0.0029 W/m/K and the thermal conductivity (374.48 K, 2938.6 kPa, Gas) was 0.02793 ± 0.0017 W/m/K. For the same compound, the thermal conductivity (374.48 K, Liquid) was 0.07368 ± 0.003 W/m/K and 0.07356 ± 0.003 W/m/K, the thermal conductivity (374.62 K, 2478.9 kPa, Gas) was 0.02638 ± 0.0016 W/m/K and the thermal conductivity (374.67 K, 3543.9 kPa, Gas) was 0.03045 ± 0.0019 W/m/K. For the same compound, the thermal conductivity (374.7 K, 2119.8 kPa, Gas) was 0.02585 ± 0.0016 W/m/K, the thermal conductivity (374.81 K, Liquid) was 0.07343 ± 0.003 W/m/K and 0.07344 ± 0.003 W/m/K and the thermal conductivity (374.82 K, Liquid) was 0.07343 ± 0.003 W/m/K. For the same compound, the thermal conductivity (374.85 K, 1564.8 kPa, Gas) was 0.02515 ± 0.0015 W/m/K, the thermal conductivity (375.05 K, 2938.6 kPa, Gas) was 0.02813 ± 0.0017 W/m/K and the thermal conductivity (375.2 K, Liquid) was 0.07321 ± 0.0029 W/m/K. For the same compound, the thermal conductivity (375.21 K, Liquid) was 0.07381 ± 0.003 W/m/K and 0.07357 ± 0.003 W/m/K, the thermal conductivity (375.25 K, 2119.8 kPa, Gas) was 0.02574 ± 0.0016 W/m/K and the thermal conductivity (375.37 K, 364.6 kPa, Gas) was 0.02485 ± 0.0015 W/m/K. For the same compound, the thermal conductivity (375.68 K, 1564.8 kPa, Gas) was 0.0258 ± 0.0016 W/m/K, the thermal conductivity (375.8 K, 2478.9 kPa, Gas) was 0.02745 ± 0.0017 W/m/K and the thermal conductivity (375.94 K, 2119.8 kPa, Gas) was 0.02613 ± 0.0016 W/m/K. The thermal conductivity (376.1 K, 887.8 kPa, Gas) was 0.02494 ± 0.0015 W/m/K, the thermal conductivity (376.18 K, 1564.8 kPa, Gas) was 0.02555 ± 0.0016 W/m/K and the thermal conductivity (376.41 K, 364.6 kPa, Gas) was 0.02448 ± 0.0015 W/m/K. It also gave a thermal conductivity (376.83 K, 887.8 kPa, Gas) of 0.02525 ± 0.0015 W/m/K, a thermal conductivity (377.08 K, 364.6 kPa, Gas) of 0.02454 ± 0.0015 W/m/K and a thermal conductivity (377.36 K, 5247.3 kPa, Fluid (supercritical or subcritical phases)) of 0.07905 ± 0.0048 W/m/K. The thermal conductivity (377.63 K, 5247.3 kPa, Fluid (supercritical or subcritical phases)) was 0.08228 ± 0.005 W/m/K, the thermal conductivity (377.73 K, 5247.3 kPa, Fluid (supercritical or subcritical phases)) was 0.08638 ± 0.0053 W/m/K and the thermal conductivity (380.51 K, 5230.1 kPa, Fluid (supercritical or subcritical phases)) was 0.05046 ± 0.0032 W/m/K.
